Results reported in paper PMC10534693, “A High-Performance Liquid Chromatography with Photodiode Array Detection Method for Simultaneous Determination of Three Compounds Isolated from Wikstroemia ganpi: Assessment of the Effects on Cytochrome P450-Mediated Metabolism In Vitro and In Vivo” (Nutrients, 2023).
Where two headings read alike, the source gives them in different places.

Key:
[1] = In vivo pharmacokinetic study of BUS with or without WGM in rats; settings: rat, plasma, po, 30 mg/kg; for AUC(0-inf) / Cmax / half-life: mean ± SD, n = 6
Method: The blood was immediately centrifuged at 3000× g for 10 min at 4 °C to obtain the plasma, which was pretreated and analyzed using the UPLC-MS/MS method.
(§1) The average plasma pharmacokinetic parameters, including the area under the curve from time 0 extrapolated to infinity (AUCinf) and the terminal half-life (t1/2), were determined using a non-compartment model (WinNonlin Ver. 3.1; Certara, Inc., Princeton, NJ, USA). The peak time (Tmax) and maximal concentration (Cmax) were obtained directly from the observed plasma concentration-time profiles. A t-test was used to compare two unpaired means, and a p-value of below 0.05 was considered statistically significant.

[2] = Stability of marker components in WGM sample and reference stock solutions (HPLC-PDA peak area); format: physicochemical; settings: for Peak Area (%) 6 h / Peak Area (%) 24 h / Peak Area (%) 48 h / Peak Area (%) 72 h: vs 0 h, n = 5; for Decrease of peak area / Increase of peak area: Reference solution
Description: The developed HPLC-PDA simultaneous analysis conditions were validated according to ICH Q2(R1) guidelines. The validation characteristics included specificity, linearity, detection limit, quantitation limit, precision, recovery, and stability. Specificity is defined as the ability to clearly identify an analyte in a sample containing a mixture of impurities. This was verified by comparing and overlaying the chromatograms and PDA spectra obtained from the WGM samples and the reference mixture to confirm that the retention time (tR), spectral pattern, and maximum absorption wavelength (λmax) of the three reference compounds were consistent. Linearity is a test used to derive calibration curves by obtaining measurements that are directly proportional to the concentration of the substance being examined within a certain range. The stock solutions of 7-methoxyluteolin-5-O-glucoside (1), pilloin 5-O-β-D-glucopyranoside (2), and rutarensin (3) were diluted to six target concentrations (5.0, 50.0, 250.0, 400.0, 500.0, and 600.0 μg/mL) in DMSO/MeOH (50:50, v/v) mixtures, and six replicates (n = 6) were performed for each working solution. The calibration curve was expressed using a linear equation (y = ax + b) through linear regression analysis as a function of the area (y) vs. the concentration (x) of each reference peak, and the slope (a), y-intercept (b), and correlation coefficient (r^2) were calculated. The correlation coefficients for the acceptance criteria exceeded 0.999. The detection limit (DL) and quantitation limit (QL) are the minimum detection and quantitation limits of the analyte in the sample, respectively, that can be reliably quantified. These values were measured using the standard deviation (SD) of the y-intercept (σ) and the slope of the calibration curve (S) derived based on the linearity evaluation and were calculated as follows: DL = 3.3 σ/S and QL = 10 σ/S. Precision is an analytical procedure used to evaluate repeatability and reproducibility. The repeatability of the experiment was assessed by measuring the intra- and inter-day precision. Three reference compounds were repeated five times (n = 5) at low, medium and high concentration levels (10.0, 100.0, and 300.0 µg/mL). Intra-day precision was injected on the same day, while inter-day precision was injected on days 1, 3, and 5. The results were determined using the relative standard deviation (RSD) of the peak area. The %RSD was calculated as follows: RSD (%) = (standard deviation/mean measured amount) × 100. %RSD value of <2% means that the developed HPLC-PDA method is precise and reproducible enough for simultaneous analysis and evaluation of the three compounds. […] The analysis was repeated three times (n = 3), and the measured values were calculated as follows: % recovery = (found concentration-original concentration)/spiked concentration × 100. Stability was used to evaluate the degree of change in the solution concentration with storage conditions and time. […] The stability results were evaluated as the %peak area change and %RSD between the mean peak area of the control group (0 h) and that of the experimental group (6, 24, 48, and 72 h).

[3] = system: CYP3A; assay: Inhibition of CYP3A-mediated metabolism (disappearance) of buspirone in rat liver S9 fraction; format: in vitro ADME; settings: 1 μM BUS; for IC50 at 30 min: probe buspirone (BUS), rat liver S9 fraction 1 mg/mL, n = 5
Method: CYP isoforms-specific probe substrates were BUS for CYP3A, DIC for CYP2C, and DEX for CYP2D [34, 35, 37]. Dose–response curves assessed metabolic inhibition of BUS in the presence of 1 μM BUS and 10 different concentrations (0, 0.1, 0.5, 1, 2, 5, 10, 20, 50, and 100 μM) of 7-methoxyluteolin-5-O-glucoside, pilloin 5-O-β-D-glucopyranoside or rutarensin. The mixture without substrate and inhibitor was incubated for 5 min at 37 °C, after which the substrate and inhibitor were added to initiate the enzyme reaction. After incubating BUS (reaction time: 30 min), DIC and DEX (reaction time: 60 min) at 37 °C at a speed of 500 oscillations/min, a sample was obtained from the reaction mixture and mixed with cold acetonitrile containing an internal standard (IS) to terminate the reaction. After sample preparation, the samples were analyzed using the ultra-performance liquid chromatography–tandem mass spectrometry (UPLC-MS/MS) method (see the sections entitled ‘Biological Sample Preparation’ and ‘UPLC-MS/MS Conditions’ in the Supplementary Materials).
as §1

[4] = BUS 30 mg/kg oral co-administered with 1 g/kg WGM
[5] = Reference solution (DMSO/MeOH 50:50), 4 °C
[6] = Reference solution (DMSO/MeOH 50:50), R.T.

Compound | Peak Area (%) 6 h [2, 5] [%] | Peak Area (%) 24 h [2, 5] [%] | Peak Area (%) 48 h [2, 5] [%] | Peak Area (%) 72 h [2, 5] [%] | Peak Area (%) 6 h [2, 6] [%] | Peak Area (%) 24 h [2, 6] [%] | Peak Area (%) 48 h [2, 6] [%] | Peak Area (%) 72 h [2, 6] [%] | Decrease of peak area ([2]; room temperature, after 6 h) [%] | Peak Area (%) 6 h ([2]; WGM solution, 4 °C) [%] | Peak Area (%) 24 h ([2]; WGM solution, 4 °C) [%] | Peak Area (%) 48 h ([2]; WGM solution, 4 °C) [%] | Peak Area (%) 72 h ([2]; WGM solution, 4 °C) [%] | Peak Area (%) 6 h ([2]; WGM solution, R.T.) [%] | Peak Area (%) 24 h ([2]; WGM solution, R.T.) [%] | Peak Area (%) 48 h ([2]; WGM solution, R.T.) [%] | Peak Area (%) 72 h ([2]; WGM solution, R.T.) [%] | IC50 at 30 min [3] [µM] | other results
O=C1CC2(CCCC2)CC(=O)N1CCCCN1CCN(c2ncccn2)CC1 [BUS, Buspirone] |  |  |  |  |  |  |  |  |  |  |  |  |  |  |  |  |  |  | Tmax ([1]; 30 mg/kg oral, with or without WGM, read-out: Tmax of BUS): 5 to 15 min; AUC(0-inf) [1, 4]: 1980 ng·h/mL; Cmax [1, 4]: 2020 ± 619 ng/mL; half-life [1, 4]: 103 ± 27 min; Tmax ([1]; BUS 30 mg/kg oral co-administered with 1 g/kg WGM, n = 6, read-out: Tmax (converted)): 5 min; AUC(0-inf) ([1]; BUS alone, 30 mg/kg oral): 1640 ng·h/mL; Cmax ([1]; BUS alone, 30 mg/kg oral): 1630 ± 762 ng/mL; half-life ([1]; BUS alone, 30 mg/kg oral): 111 ± 23 min; Tmax ([1]; BUS alone, 30 mg/kg oral, n = 6, read-out: Tmax (converted)): 10 min
COc1cc(O[C@@H]2O[C@H](CO)[C@@H](O)[C@H](O)[C@H]2O)c2c(=O)cc(-c3ccc(O)c(O)c3)oc2c1 [Compound 1, 7-methoxyluteolin-5-O-glucoside] | 99.15 | 96.60 | 96.58 | 97.39 | 99.46 | 98.56 | 100.34 | 99.03 | 0.54 | 100.10 | 98.87 | 98.63 | 101.60 | 100.80 | 100.10 | 97.43 | 100.99 | 2.73 | 
COc1cc(O[C@@H]2O[C@H](CO)[C@@H](O)[C@H](O)[C@H]2O)c2c(=O)cc(-c3ccc(OC)c(O)c3)oc2c1 [Compound 2, pilloin 5-O-β-D-glucopyranoside] | 99.29 | 102.15 | 104.42 | 101.79 | 101.71 | 103.18 | 107.58 | 103.48 |  | 100.32 | 99.18 | 98.86 | 102.02 | 101.41 | 101.08 | 98.97 | 103.35 | 18.7 | Increase of peak area ([2]; 4 °C, after 48 h): 4.42%; Increase of peak area ([2]; R.T., after 48 h): 7.58%; Increase of peak area ([2]; room temperature, after 6 h): 1.71%
COc1cc2cc(Oc3ccc4ccc(=O)oc4c3)c(=O)oc2cc1O[C@@H]1O[C@H](COC(=O)CC(C)(O)CC(=O)O)[C@@H](O)[C@H](O)[C@H]1O (some centres unmarked) [Compound 3, rutarensin] | 98.02 | 99.40 | 98.78 | 101.22 | 96.77 | 98.82 | 98.54 | 98.72 | 3.23 | 100.19 | 99.30 | 98.91 | 102.15 | 101.30 | 101.14 | 98.98 | 103.56 |  | Inhibition of BUS metabolism (dose-response) ([3]; rat liver S9 fraction, 0-100 μM marker compound): did not inhibit
